Experimental data as given in patent publication US7786141B2 (Vertex Pharmaceuticals Incorporated, priority 2004, dated 2010).

Assays:
M1 muscarinic receptor = biological target: T1, M1 muscarinic receptor (Homo sapiens, UniProt P11229); assay: Functional mobilization of intracellular calcium (FLIPR) in M1-CHO cells; type: cell-based; conditions: Table 4; for Emax: 100% efficacy is the maximum response obtained with the Carbachol control; for M1 Activity: M1 receptor, calcium mobilization (FLIPR)
T1 construct: expressed in transfected cells; host or cells: CHO (M1-CHO)
T1 sequence (P11229 1-460): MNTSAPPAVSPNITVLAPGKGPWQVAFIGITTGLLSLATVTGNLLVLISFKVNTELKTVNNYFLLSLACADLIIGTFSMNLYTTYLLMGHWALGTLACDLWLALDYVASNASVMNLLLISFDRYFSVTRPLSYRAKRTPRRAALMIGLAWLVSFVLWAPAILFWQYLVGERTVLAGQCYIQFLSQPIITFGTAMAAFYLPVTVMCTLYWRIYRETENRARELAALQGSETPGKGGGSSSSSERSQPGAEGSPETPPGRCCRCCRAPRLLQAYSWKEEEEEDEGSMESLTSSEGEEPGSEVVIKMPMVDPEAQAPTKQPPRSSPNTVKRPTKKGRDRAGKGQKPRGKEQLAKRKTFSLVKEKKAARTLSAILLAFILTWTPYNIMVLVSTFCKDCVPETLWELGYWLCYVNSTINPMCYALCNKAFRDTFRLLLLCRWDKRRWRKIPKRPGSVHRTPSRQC
In short: (§1)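 Steps: seed M1- or M4-CHO cells 18-24 hrs ahead; load calcium dye with 1 mM probenecid; add test compound (0.5% DMSO final), either alone for agonism or 15 min before EC80 carbachol for inhibition; record FLIPR fluorescence for 60 sec.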

M4 muscarinic receptor = biological target: T2, M4 muscarinic receptor (Homo sapiens, UniProt P08173); assay: Functional mobilization of intracellular calcium (FLIPR) in M4-CHO cells; type: cell-based; conditions: Table 4; for Emax: 100% efficacy is the maximum response obtained with the Carbachol control; for M4 Activity: M4 receptor, calcium mobilization (FLIPR)
T2 construct: expressed in transfected cells; host or cells: CHO (M4-CHO)
T2 sequence (P08173 1-479): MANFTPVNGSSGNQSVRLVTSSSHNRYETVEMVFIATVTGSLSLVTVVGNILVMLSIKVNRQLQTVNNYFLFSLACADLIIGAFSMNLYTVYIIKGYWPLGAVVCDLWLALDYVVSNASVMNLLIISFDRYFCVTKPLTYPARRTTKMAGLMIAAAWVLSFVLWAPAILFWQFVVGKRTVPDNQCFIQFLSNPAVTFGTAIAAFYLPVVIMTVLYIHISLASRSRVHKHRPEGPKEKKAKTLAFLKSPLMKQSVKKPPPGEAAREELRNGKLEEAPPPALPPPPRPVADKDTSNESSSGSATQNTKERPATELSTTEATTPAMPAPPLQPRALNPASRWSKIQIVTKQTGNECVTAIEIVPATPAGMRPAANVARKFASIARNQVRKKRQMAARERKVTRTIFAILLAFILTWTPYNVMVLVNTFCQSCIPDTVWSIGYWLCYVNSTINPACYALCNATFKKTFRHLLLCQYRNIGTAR
In short: as §1

CC#CCOC(=O)N1CC[C@@H](CN2CCC3(CC2)CN(C(C)=O)c2cccc(C)c23)C1 [compound 929]
Emax (M1 muscarinic receptor): 25 to 100%
M1 Activity (M1 muscarinic receptor): xxx (activity was measured to be less than 2.0 μM)
Emax (M4 muscarinic receptor): 25 to 100%
M4 Activity (M4 muscarinic receptor): xxx (activity was measured to be less than 2.0 μM)

CCOC(=O)N1CCC(N2CCC3(CC2)CN(C(C)=O)c2c(C4=CCCC4)cccc23)CC1 [compound 930]
Emax (M1 muscarinic receptor): < 25%
M1 Activity (M1 muscarinic receptor): x (activity was measured to be greater than 5.0 μM)
Emax (M4 muscarinic receptor): < 25%
M4 Activity (M4 muscarinic receptor): x (activity was measured to be greater than 5.0 μM)

COc1cc2c(cc1OC)C1(CCN(CC3CCCCC3)CC1)C[C@@H]2N(C(C)=O)[C@@H](C)c1ccccc1 [compound 931]
Emax (M1 muscarinic receptor): < 25%
M1 Activity (M1 muscarinic receptor): x (activity was measured to be greater than 5.0 μM)
Emax (M4 muscarinic receptor): < 25%
M4 Activity (M4 muscarinic receptor): x (activity was measured to be greater than 5.0 μM)

CC(=O)N1CC2(CCN(C3CCN(C(=O)OC4CCOC4)CC3)CC2)c2ccccc21 (stereo not shown) [compound 932]
Emax (M1 muscarinic receptor): 25 to 100%
M1 Activity (M1 muscarinic receptor): x (activity was measured to be greater than 5.0 μM)
Emax (M4 muscarinic receptor): < 25%
M4 Activity (M4 muscarinic receptor): x (activity was measured to be greater than 5.0 μM)

Cc1ccc2c(c1)C1(CCN(C3CC4CCC3C4)CC1)CN2C(=O)c1ccccc1 (stereo not shown) [compound 933]
Emax (M1 muscarinic receptor): < 25%
M1 Activity (M1 muscarinic receptor): x (activity was measured to be greater than 5.0 μM)
Emax (M4 muscarinic receptor): < 25%
M4 Activity (M4 muscarinic receptor): x (activity was measured to be greater than 5.0 μM)

CC(=O)N[C@H]1CC2(CCN(CC3CCCC3)CC2)c2ccccc21 [compound 934]
Emax (M1 muscarinic receptor): 25 to 100%
M1 Activity (M1 muscarinic receptor): xx (activity was measured to be between 2.0 μM and 5.0 μM)
Emax (M4 muscarinic receptor): 25 to 100%
M4 Activity (M4 muscarinic receptor): xxx (activity was measured to be less than 2.0 μM)

Cc1ccc2c(c1)/C(=N/O)CC21CCN(CC2C[C@H]3CCC2C3)CC1 (stereo partly shown) [compound 935]
Emax (M1 muscarinic receptor): 25 to 100%
M1 Activity (M1 muscarinic receptor): x (activity was measured to be greater than 5.0 μM)
Emax (M4 muscarinic receptor): 25 to 100%
M4 Activity (M4 muscarinic receptor): xxx (activity was measured to be less than 2.0 μM)

COC(=O)N1CCCC(CCN2CCC3(CCC(NC(C)=O)c4ccccc43)CC2)C1 (stereo not shown) [compound 936]
Emax (M1 muscarinic receptor): 25 to 100%
M1 Activity (M1 muscarinic receptor): xxx (activity was measured to be less than 2.0 μM)
Emax (M4 muscarinic receptor): < 25%
M4 Activity (M4 muscarinic receptor): x (activity was measured to be greater than 5.0 μM)

CN(C)C(=O)N1CC2(CCN(C3CCN(C(=O)OCC(F)(F)F)CC3)CC2)c2cc(F)ccc21 [compound 938]
Emax (M1 muscarinic receptor): 25 to 100%
M1 Activity (M1 muscarinic receptor): xxx (activity was measured to be less than 2.0 μM)
Emax (M4 muscarinic receptor): 25 to 100%
M4 Activity (M4 muscarinic receptor): xxx (activity was measured to be less than 2.0 μM)

CC#CCOC(=O)N1CC[C@@H](CN2CCC3(CC2)CN(C(=O)N(C)C)c2ccc(F)cc23)C1 [compound 939]
Emax (M1 muscarinic receptor): 25 to 100%
M1 Activity (M1 muscarinic receptor): xxx (activity was measured to be less than 2.0 μM)
Emax (M4 muscarinic receptor): 25 to 100%
M4 Activity (M4 muscarinic receptor): xxx (activity was measured to be less than 2.0 μM)

CCOC(=O)N1CC[C@H](CN2CCC3(CC2)CN(C(C)=O)c2cccc(C)c23)C1 [compound 940]
Emax (M1 muscarinic receptor): 25 to 100%
M1 Activity (M1 muscarinic receptor): xxx (activity was measured to be less than 2.0 μM)
Emax (M4 muscarinic receptor): 25 to 100%
M4 Activity (M4 muscarinic receptor): xxx (activity was measured to be less than 2.0 μM)

CCOC(=O)N1CCC(N2CCC3(CC2)CN(c2cccnc2)c2ccc(F)cc23)CC1 [compound 941]
Emax (M1 muscarinic receptor): 25 to 100%
M1 Activity (M1 muscarinic receptor): xxx (activity was measured to be less than 2.0 μM)
Emax (M4 muscarinic receptor): 25 to 100%
M4 Activity (M4 muscarinic receptor): xxx (activity was measured to be less than 2.0 μM)

CCOC(=O)N1CCC(N2CCC3(CC2)CN(c2ccc(C)nn2)c2ccc(F)cc23)CC1 [compound 942]
Emax (M1 muscarinic receptor): > 100%
M1 Activity (M1 muscarinic receptor): xxx (activity was measured to be less than 2.0 μM)
Emax (M4 muscarinic receptor): 25 to 100%
M4 Activity (M4 muscarinic receptor): xxx (activity was measured to be less than 2.0 μM)

CC(=O)N1CC2(CCN(C3CCN(c4nc(C)ns4)CC3)CC2)c2cc(F)ccc21 [compound 943]
Emax (M1 muscarinic receptor): 25 to 100%
M1 Activity (M1 muscarinic receptor): xxx (activity was measured to be less than 2.0 μM)
Emax (M4 muscarinic receptor): 25 to 100%
M4 Activity (M4 muscarinic receptor): xxx (activity was measured to be less than 2.0 μM)

CCNC(=O)N1CC2(CCN(C3CCN(C(=O)OCC)CC3)CC2)c2ccccc21 [compound 944]
Emax (M1 muscarinic receptor): 25 to 100%
M1 Activity (M1 muscarinic receptor): xxx (activity was measured to be less than 2.0 μM)
Emax (M4 muscarinic receptor): 25 to 100%
M4 Activity (M4 muscarinic receptor): xxx (activity was measured to be less than 2.0 μM)

O=C1CCCN1[C@H]1CCC2(CCN(C3CCCCCC3)CC2)c2ccccc21 [compound 945]
Emax (M1 muscarinic receptor): 25 to 100%
M1 Activity (M1 muscarinic receptor): xxx (activity was measured to be less than 2.0 μM)
Emax (M4 muscarinic receptor): 25 to 100%
M4 Activity (M4 muscarinic receptor): xxx (activity was measured to be less than 2.0 μM)

O=C(N[C@H]1CC2(CCN(CC3CCCCC3)CC2)c2ccccc21)N1CCCC1 [compound 946]
Emax (M1 muscarinic receptor): < 25%
M1 Activity (M1 muscarinic receptor): x (activity was measured to be greater than 5.0 μM)
Emax (M4 muscarinic receptor): < 25%
M4 Activity (M4 muscarinic receptor): xxx (activity was measured to be less than 2.0 μM)

C#CCOC(=O)N1CCC(N2CCC3(CC2)CN(C(C)=O)c2ccccc23)CC1 [compound 947]
Emax (M1 muscarinic receptor): > 100%
M1 Activity (M1 muscarinic receptor): xxx (activity was measured to be less than 2.0 μM)
Emax (M4 muscarinic receptor): 25 to 100%
M4 Activity (M4 muscarinic receptor): xxx (activity was measured to be less than 2.0 μM)

CCOC(=O)N1CCC(CN2CCC3(CC2)CN(C(C)=O)c2ccc(S(C)(=O)=O)cc23)CC1 [compound 948]
Emax (M1 muscarinic receptor): < 25%
M1 Activity (M1 muscarinic receptor): x (activity was measured to be greater than 5.0 μM)
Emax (M4 muscarinic receptor): < 25%
M4 Activity (M4 muscarinic receptor): x (activity was measured to be greater than 5.0 μM)

CCOC(=O)N1C2CCC1CC(N1CCC3(CC1)CC(=O)c1cc(C)ccc13)C2 (stereo not shown) [compound 949]
Emax (M1 muscarinic receptor): 25 to 100%
M1 Activity (M1 muscarinic receptor): xxx (activity was measured to be less than 2.0 μM)
Emax (M4 muscarinic receptor): 25 to 100%
M4 Activity (M4 muscarinic receptor): xxx (activity was measured to be less than 2.0 μM)

CCOC(=O)N1CCC(N2CCC3(CC2)CN(C(C)=O)c2ccc(-c4ccc(F)cc4)cc23)CC1 [compound 950]
Emax (M1 muscarinic receptor): 25 to 100%
M1 Activity (M1 muscarinic receptor): xx (activity was measured to be between 2.0 μM and 5.0 μM)
Emax (M4 muscarinic receptor): 25 to 100%
M4 Activity (M4 muscarinic receptor): xx (activity was measured to be between 2.0 μM and 5.0 μM)

CCOC(=O)N1CCC(N2CCC3(CC2)CN(C2CCC(=O)CC2)c2ccc(F)cc23)CC1 [compound 951]
Emax (M1 muscarinic receptor): 25 to 100%
M1 Activity (M1 muscarinic receptor): xxx (activity was measured to be less than 2.0 μM)
Emax (M4 muscarinic receptor): 25 to 100%
M4 Activity (M4 muscarinic receptor): xxx (activity was measured to be less than 2.0 μM)

CCOC(=O)N1CCC(N2CCC3(CC2)CNc2ccc(F)cc23)CC1 [compound 952]
Emax (M1 muscarinic receptor): 25 to 100%
M1 Activity (M1 muscarinic receptor): xxx (activity was measured to be less than 2.0 μM)
Emax (M4 muscarinic receptor): 25 to 100%
M4 Activity (M4 muscarinic receptor): xxx (activity was measured to be less than 2.0 μM)

CC(=O)N1CC2(CCN(C3CCN(c4cnc(C)c(C)n4)CC3)CC2)c2ccccc21 [compound 953]
Emax (M1 muscarinic receptor): 25 to 100%
M1 Activity (M1 muscarinic receptor): xx (activity was measured to be between 2.0 μM and 5.0 μM)
Emax (M4 muscarinic receptor): 25 to 100%
M4 Activity (M4 muscarinic receptor): xxx (activity was measured to be less than 2.0 μM)

COCCOC(=O)N1CCCC(N2CCC3(CC2)CN(C(=O)N(C)C)c2ccc(F)cc23)CC1 (stereo not shown) [compound 954]
Emax (M1 muscarinic receptor): 25 to 100%
M1 Activity (M1 muscarinic receptor): xxx (activity was measured to be less than 2.0 μM)
Emax (M4 muscarinic receptor): 25 to 100%
M4 Activity (M4 muscarinic receptor): xxx (activity was measured to be less than 2.0 μM)

O=C(N[C@H]1CC2(CCN(CC3CCCCC3)CC2)c2ccccc21)C1CC1 [compound 955]
Emax (M1 muscarinic receptor): 25 to 100%
M1 Activity (M1 muscarinic receptor): xxx (activity was measured to be less than 2.0 μM)
Emax (M4 muscarinic receptor): 25 to 100%
M4 Activity (M4 muscarinic receptor): xxx (activity was measured to be less than 2.0 μM)

CCOC(=O)N1CCC(N2CCC3(CC2)CN(C(C)=O)c2c(-c4ccsc4)cccc23)CC1 [compound 956]
Emax (M1 muscarinic receptor): 25 to 100%
M1 Activity (M1 muscarinic receptor): x (activity was measured to be greater than 5.0 μM)
Emax (M4 muscarinic receptor): < 25%
M4 Activity (M4 muscarinic receptor): x (activity was measured to be greater than 5.0 μM)

CN(C)C(=O)N1CC2(CCN(C3CCN(c4nccs4)CC3)CC2)c2cc(F)ccc21 [compound 957]
Emax (M1 muscarinic receptor): 25 to 100%
M1 Activity (M1 muscarinic receptor): xxx (activity was measured to be less than 2.0 μM)
Emax (M4 muscarinic receptor): 25 to 100%
M4 Activity (M4 muscarinic receptor): xxx (activity was measured to be less than 2.0 μM)
